Earlier results on one substance are cited in patent US20050171434A1, “Chromophore probes for optical imaging” (VisEn Medical, Inc., priority 2002, published 2005).

For the substance Cy5.5, the λem (emission wavelength) was 694 nm. Further, for the setting “excitation wavelength”, the λex is on record as 675 nm.
